Results: patent publication US20190175744A1, “INSULIN-INCRETIN CONJUGATES” (Merck Sharp & Dohme Corp., priority 2016, published 2019)
pEC50: −log10 of the molar value. Read-outs that look alike come from different tables or passages of the source. Non-standard residues stand in square brackets, D forms with d. Residues, ends and D or L forms follow the SMILES beside them. Lys(N3) = [N-]=[N+]=NCCCC[C@H](N)C(=O)O; Aib = CC(C)(N)C(=O)O

Assays:
human GCGR = target: T1, human GCGR (Homo sapiens, UniProt P47871); assay: cAMP activity assay, cells expressing human GCGR; format: cell-based; conditions: for GCGR/GLP1R ratio: Table 5, ratio of hGCGR EC50 to hGLP1R EC50;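 on all read-outs here: cAMP production read by luminescence after one hour of peptide exposure at room temperature, EC50 from logistic curve fit, native glucagon and GLP-1 as control peptides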
T1 construct: expressed in transfected cells; grown with Blasticidin and Hygromycin
T1 sequence (P47871 26-477): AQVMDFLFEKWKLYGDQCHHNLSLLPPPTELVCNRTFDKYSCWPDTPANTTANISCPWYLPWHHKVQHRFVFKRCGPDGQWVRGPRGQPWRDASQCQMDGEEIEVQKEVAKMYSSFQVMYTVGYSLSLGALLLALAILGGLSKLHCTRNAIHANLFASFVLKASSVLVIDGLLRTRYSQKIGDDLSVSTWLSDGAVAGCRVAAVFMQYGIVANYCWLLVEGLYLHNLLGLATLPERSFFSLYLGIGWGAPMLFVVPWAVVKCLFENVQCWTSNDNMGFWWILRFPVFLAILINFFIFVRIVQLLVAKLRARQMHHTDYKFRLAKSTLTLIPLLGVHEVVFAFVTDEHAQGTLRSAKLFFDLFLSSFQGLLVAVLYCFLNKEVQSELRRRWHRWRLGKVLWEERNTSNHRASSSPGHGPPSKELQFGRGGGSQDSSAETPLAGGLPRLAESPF

human GLP1R = human GLP1R (Homo sapiens, UniProt P43220); assay: cAMP activity assay, cells expressing human GLP1R; format: cell-based
Chain of human GLP1R (P43220 24-463): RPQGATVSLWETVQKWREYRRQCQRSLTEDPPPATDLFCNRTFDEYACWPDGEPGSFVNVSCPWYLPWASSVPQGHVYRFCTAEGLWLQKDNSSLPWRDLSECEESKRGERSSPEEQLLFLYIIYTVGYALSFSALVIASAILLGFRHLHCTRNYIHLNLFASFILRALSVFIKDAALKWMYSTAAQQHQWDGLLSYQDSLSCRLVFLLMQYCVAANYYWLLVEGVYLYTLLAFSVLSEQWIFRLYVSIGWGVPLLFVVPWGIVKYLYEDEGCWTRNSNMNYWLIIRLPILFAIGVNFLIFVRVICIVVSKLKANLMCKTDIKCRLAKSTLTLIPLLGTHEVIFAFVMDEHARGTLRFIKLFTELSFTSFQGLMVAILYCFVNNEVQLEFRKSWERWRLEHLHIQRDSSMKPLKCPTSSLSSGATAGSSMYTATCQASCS

[1] = Table 5, incretin peptides, cAMP, read-out: hGCGR_EC50
[2] = Table 5, incretin peptides, cAMP, read-out: hGLP1R EC50

## CCCCCCCCCCCCCCCC(=O)N[C@@H](CCC(=O)N[C@@H](CCC(=O)NCCCC[C@H](NC(=O)[C@H](CC(=O)O)NC(=O)[C@H](CO)NC(=O)[C@@H](NC(=O)[C@H](Cc1ccccc1)NC(=O)[C@@H](NC(=O)CNC(=O)[C@H](CCC(N)=O)NC(=O)[C@@H](CO)NC(=O)[C@@H](N)Cc1c[nH]cn1)[C@@H](C)O)[C@@H](C)O)C(=O)N[C@@H](CO)C(=O)N[C@@H](CCCCN)C(=O)N[C@@H](Cc1ccc(O)cc1)C(=O)N[C@@H](CC(C)C)C(=O)N[C@@H](CC(=O)O)C(=O)N[C@@H](CC(N)=O)C(=O)N[C@@H](CCCCN)C(=O)N[C@@H](CCCNC(=N)N)C(=O)N[C@@H](C)C(=O)N[C@@H](CCC(N)=O)C(=O)N[C@@H](CC(=O)O)C(=O)N[C@@H](Cc1ccccc1)C(=O)N[C@H](C(=O)N[C@@H](CCCCN=[N+]=[N-])C(=O)N[C@@H](Cc1c[nH]c2ccccc12)C(=O)N[C@@H](CC(C)C)C(=O)N[C@@H](CC(C)C)C(=O)N[C@@H](CCC(N)=O)C(=O)N[C@H](C(N)=O)[C@@H](C)O)C(C)C)C(=O)O)C(=O)O [PEP12]
Human GCGR
  pEC50: 10.70
  GCGR/GLP1R ratio: 0.3
Human GLP1R
  pEC50: 10.15

## CCCCCCCCCCCCCCCC(=O)N[C@@H](CCC(=O)N[C@@H](CCC(=O)NCCCC[C@H](NC(=O)[C@H](CC(=O)O)NC(=O)[C@H](CO)NC(=O)[C@@H](NC(=O)[C@H](Cc1ccccc1)NC(=O)[C@@H](NC(=O)CNC(=O)[C@H](CCC(N)=O)NC(=O)[C@@H](CO)NC(=O)[C@@H](N)Cc1c[nH]cn1)[C@@H](C)O)[C@@H](C)O)C(=O)N[C@@H](CO)C(=O)N[C@@H](CCCCN)C(=O)N[C@@H](Cc1ccc(O)cc1)C(=O)N[C@@H](CC(C)C)C(=O)N[C@@H](CC(=O)O)C(=O)N[C@@H](CCC(=O)O)C(=O)N[C@@H](CCCNC(=N)N)C(=O)N[C@@H](C)C(=O)N[C@@H](C)C(=O)N[C@@H](CCC(N)=O)C(=O)N[C@@H](CC(=O)O)C(=O)N[C@@H](Cc1ccccc1)C(=O)N[C@H](C(=O)N[C@@H](CCC(N)=O)C(=O)N[C@@H](Cc1c[nH]c2ccccc12)C(=O)N[C@@H](CC(C)C)C(=O)N[C@@H](CC(C)C)C(=O)N[C@@H](CC(=O)O)C(=O)N[C@H](C(N)=O)[C@@H](C)O)C(C)C)C(=O)O)C(=O)O [PEP76, reference compound]
Human GCGR; Table 7, control molecules
  Ratio GCGR/GLP1R: 1.3

## CC(C)C[C@H](NC(=O)[C@H](Cc1ccc(O)cc1)NC(=O)[C@H](CCCCN)NC(=O)[C@H](CO)NC(=O)[C@H](Cc1ccc(O)cc1)NC(=O)[C@H](CC(=O)O)NC(=O)[C@H](CO)NC(=O)[C@@H](NC(=O)[C@H](Cc1ccccc1)NC(=O)[C@@H](NC(=O)CNC(=O)[C@H](CCC(N)=O)NC(=O)[C@@H](CO)NC(=O)[C@@H](N)Cc1c[nH]cn1)[C@@H](C)O)[C@@H](C)O)C(=O)N[C@@H](CC(=O)O)C(=O)N[C@@H](CCC(=O)O)C(=O)N[C@@H](CCCNC(=N)N)C(=O)N[C@@H](C)C(=O)N[C@@H](C)C(=O)N[C@@H](CCC(N)=O)C(=O)N[C@@H](CCCCNC(=O)COCCOCCNC(=O)COCCOCCNC(=O)CC[C@H](NC(=O)CCCCCCCCCCCCCCCN=[N+]=[N-])C(=O)O)C(=O)N[C@@H](Cc1ccccc1)C(=O)N[C@H](C(=O)N[C@@H](CCC(N)=O)C(=O)N[C@@H](Cc1c[nH]c2ccccc12)C(=O)N[C@@H](CC(C)C)C(=O)N[C@@H](CC(C)C)C(=O)N[C@@H](CC(=O)O)C(=O)N[C@H](C(N)=O)[C@@H](C)O)C(C)C [PEP27]
Human GCGR
  pEC50: 9.41
  GCGR/GLP1R ratio: 6.5
Human GLP1R
  pEC50: 10.22

## CSCC[C@H](NC(=O)[C@H](CC(C)C)NC(=O)[C@H](Cc1c[nH]c2ccccc12)NC(=O)[C@H](CCCCN=[N+]=[N-])NC(=O)[C@@H](NC(=O)[C@H](Cc1ccccc1)NC(=O)[C@H](CC(=O)O)NC(=O)[C@H](CCC(N)=O)NC(=O)[C@H](C)NC(=O)[C@H](C)NC(=O)[C@H](CCCNC(=N)N)NC(=O)C(C)(C)NC(=O)[C@H](CC(=O)O)NC(=O)[C@H](CC(C)C)NC(=O)[C@H](Cc1ccc(O)cc1)NC(=O)[C@H](CCCCN)NC(=O)[C@H](CO)NC(=O)[C@H](CCCCN)NC(=O)[C@H](CC(=O)O)NC(=O)[C@H](CO)NC(=O)[C@@H](NC(=O)[C@H](Cc1ccccc1)NC(=O)[C@@H](NC(=O)CNC(=O)[C@H](CCC(N)=O)NC(=O)C(C)(C)NC(=O)[C@@H](N)Cc1c[nH]cn1)[C@@H](C)O)[C@@H](C)O)C(C)C)C(=O)N[C@@H](CC(N)=O)C(=O)N[C@H](C(=O)N[C@@H](CCCCN)C(=O)N[C@@H](CCC(N)=O)C(=O)O)[C@@H](C)O [PEP68] (H-H[Aib]QGTFTSDKSKYLD[Aib]RAAQDFV[Lys(N3)]WLMNTKQ-OH; N-terminus assumed)
Human GCGR; [1]
  pEC50: 8.57
Human GCGR
  GCGR/GLP1R ratio: 38.6
Human GLP1R; [2]
  pEC50: 10.15

## CCCCCCCCCCCCCCCC(=O)N[C@@H](CCC(=O)N[C@@H](CCC(=O)NCCCC[C@H](NC(=O)[C@H](CC(=O)O)NC(=O)[C@H](CO)NC(=O)[C@@H](NC(=O)[C@H](Cc1ccccc1)NC(=O)[C@@H](NC(=O)CNC(=O)[C@H](CCC(=O)O)NC(=O)[C@@H](CO)NC(=O)[C@@H](N)Cc1c[nH]cn1)[C@@H](C)O)[C@@H](C)O)C(=O)N[C@@H](CO)C(=O)N[C@@H](CCCCN)C(=O)N[C@@H](Cc1ccc(O)cc1)C(=O)N[C@@H](CC(C)C)C(=O)N[C@@H](CC(=O)O)C(=O)N[C@@H](CCC(=O)O)C(=O)N[C@@H](CCCNC(=N)N)C(=O)N[C@@H](C)C(=O)N[C@@H](C)C(=O)N[C@@H](CCC(N)=O)C(=O)N[C@@H](CC(=O)O)C(=O)N[C@@H](Cc1ccccc1)C(=O)N[C@H](C(=O)N[C@@H](CCCCN=[N+]=[N-])C(=O)N[C@@H](Cc1c[nH]c2ccccc12)C(=O)N[C@@H](CC(C)C)C(=O)N[C@@H](CC(C)C)C(=O)N[C@@H](CC(=O)O)C(=O)N[C@H](C(N)=O)[C@@H](C)O)C(C)C)C(=O)O)C(=O)O [PEP75]
Human GCGR
  pEC50: < 8.30
  GCGR/GLP1R ratio: >72
Human GLP1R
  pEC50: 10.15

## CC(C)C[C@H](NC(=O)[C@H](Cc1c[nH]c2ccccc12)NC(=O)[C@H](CCC(N)=O)NC(=O)[C@@H](NC(=O)[C@H](Cc1ccccc1)NC(=O)[C@H](CC(=O)O)NC(=O)[C@H](CCC(N)=O)NC(=O)[C@H](C)NC(=O)[C@H](C)NC(=O)[C@H](CCCNC(=N)N)NC(=O)C(C)(C)NC(=O)[C@H](CC(=O)O)NC(=O)[C@H](CC(C)C)NC(=O)[C@H](Cc1ccc(O)cc1)NC(=O)[C@H](CCCCN)NC(=O)[C@H](CO)NC(=O)[C@H](Cc1ccc(O)cc1)NC(=O)[C@H](CC(=O)O)NC(=O)[C@H](CO)NC(=O)[C@@H](NC(=O)[C@H](Cc1ccccc1)NC(=O)[C@@H](NC(=O)CNC(=O)[C@H](CCC(N)=O)NC(=O)C(C)(C)NC(=O)[C@@H](N)Cc1c[nH]cn1)[C@@H](C)O)[C@@H](C)O)C(C)C)C(=O)N[C@@H](CC(C)C)C(=O)N[C@@H](CC(=O)O)C(=O)N[C@H](C(=O)N[C@@H](CCCCN)C(=O)N[C@@H](CCCCN=[N+]=[N-])C(N)=O)[C@@H](C)O [PEP18]
Human GCGR; [1]
  pEC50: 9.68
Human GCGR
  GCGR/GLP1R ratio: 6.7
Human GLP1R; [2]
  pEC50: 10.52

## HsQGTGTSD-K(γEγEC16)SKYLDURAAQDFV-Nle(ϵN3)-WLLDT-NH2 [PEP7]
Human GCGR
  GCGR/GLP1R ratio: 0.2

## CC(C)C[C@H](NC(=O)[C@H](Cc1ccc(O)cc1)NC(=O)[C@H](CCCCN)NC(=O)[C@H](CO)NC(=O)[C@H](Cc1ccc(O)cc1)NC(=O)[C@H](CC(=O)O)NC(=O)[C@H](CO)NC(=O)[C@@H](NC(=O)[C@H](Cc1ccccc1)NC(=O)[C@@H](NC(=O)CNC(=O)[C@H](CCC(N)=O)NC(=O)C(C)(C)NC(=O)[C@@H](N)Cc1c[nH]cn1)[C@@H](C)O)[C@@H](C)O)C(=O)N[C@@H](CC(=O)O)C(=O)N[C@@H](C)C(=O)N[C@@H](CCCNC(=N)N)C(=O)N[C@@H](C)C(=O)N[C@@H](C)C(=O)N[C@@H](CCCCNC(=O)COCCOCCNC(=O)COCCOCCNC(=O)CC[C@H](NC(=O)CCCCCCCCCCCCCCCCCCC(=O)O)C(=O)O)C(=O)N[C@@H](CC(=O)O)C(=O)N[C@@H](Cc1ccccc1)C(=O)N[C@H](C(=O)N[C@@H](CCCCN=[N+]=[N-])C(=O)N[C@@H](Cc1c[nH]c2ccccc12)C(=O)N[C@@H](CC(C)C)C(=O)N[C@@H](CCS(C)(=O)=O)C(=O)N[C@@H](CC(=O)O)C(=O)N[C@H](C(N)=O)[C@@H](C)O)C(C)C [PEP31]
Human GCGR
  GCGR/GLP1R ratio: 3.1

## CC(C)C[C@H](NC(=O)[C@H](Cc1ccc(O)cc1)NC(=O)[C@H](CCCCN)NC(=O)[C@H](CO)NC(=O)[C@H](CCCCN)NC(=O)[C@H](CC(=O)O)NC(=O)[C@H](CO)NC(=O)[C@@H](NC(=O)[C@H](Cc1ccccc1)NC(=O)[C@@H](NC(=O)CNC(=O)[C@H](CCC(N)=O)NC(=O)[C@@H](CO)NC(=O)[C@@H](N)Cc1c[nH]cn1)[C@@H](C)O)[C@@H](C)O)C(=O)N[C@@H](CC(=O)O)C(=O)N[C@@H](CCC(=O)O)C(=O)N[C@@H](CCCNC(=N)N)C(=O)N[C@@H](C)C(=O)N[C@@H](C)C(=O)N[C@@H](CCC(N)=O)C(=O)N[C@@H](CC(=O)O)C(=O)N[C@@H](Cc1ccccc1)C(=O)N[C@H](C(=O)N[C@@H](CCC(N)=O)C(=O)N[C@@H](Cc1c[nH]c2ccccc12)C(=O)N[C@@H](CC(C)C)C(=O)N[C@@H](CC(C)C)C(=O)N[C@@H](CC(=O)O)C(=O)N[C@H](C(=O)N[C@@H](CCCCN=[N+]=[N-])C(N)=O)[C@@H](C)O)C(C)C [PEP73]
Human GCGR
  GCGR/GLP1R ratio: 0.6

## CC(C)C[C@H](NC(=O)[C@H](Cc1ccc(O)cc1)NC(=O)[C@H](CCCCN)NC(=O)[C@H](CO)NC(=O)[C@H](CCCCNC(=O)COCCOCCNC(=O)COCCOCCNC(=O)CC[C@H](NC(=O)CCCCCCCCCCCCCCCCC(=O)O)C(=O)O)NC(=O)[C@H](CC(=O)O)NC(=O)[C@H](CO)NC(=O)[C@@H](NC(=O)[C@H](Cc1ccccc1)NC(=O)[C@@H](NC(=O)CNC(=O)[C@H](CCC(N)=O)NC(=O)[C@@H](CO)NC(=O)[C@@H](N)Cc1c[nH]cn1)[C@@H](C)O)[C@@H](C)O)C(=O)N[C@@H](CC(=O)O)C(=O)N[C@@H](CCC(=O)O)C(=O)N[C@@H](CCCNC(=N)N)C(=O)N[C@@H](C)C(=O)N[C@@H](C)C(=O)N[C@@H](CCC(N)=O)C(=O)N[C@@H](CC(=O)O)C(=O)N[C@@H](Cc1ccccc1)C(=O)N[C@H](C(=O)N[C@@H](CCCCN=[N+]=[N-])C(=O)N[C@@H](Cc1c[nH]c2ccccc12)C(=O)N[C@@H](CC(C)C)C(=O)N[C@@H](CC(C)C)C(=O)N[C@@H](CC(=O)O)C(=O)N[C@H](C(N)=O)[C@@H](C)O)C(C)C [PEP29]
Human GCGR
  GCGR/GLP1R ratio: 1.0
